Here are results for four compounds from ChEMBL document CHEMBL3137667, “[Drug-induced liver injury; fourteenth updated edition of the bibliographic database of liver injuries and related drugs]” (Gastroenterol Clin Biol, 2004).

A short description of series [1]: Highest frequency of moderate liver toxicity observed during clinical trials, expressed as a percentage. [column '% BIOL' in source]. As to conditions: human.
Series [2] in a line: Highest frequency of acute liver toxicity observed during clinical trials, expressed as a percentage. [column '% AIGUE' in source]. The settings on record: human.
Series [3] can be described thus: Presence of at least one case with successful reintroduction. [column 'REINT' in source]. The settings on record: human.
Series [4] in a line: Times to onset, minimal and maximal, observed in the indexed observations. [column 'DELAI' in source]. The settings on record: human.
For series [5] the following is noted: human, serum.
For series [6] the following is noted: human, serum. The source holds these as a separate data set.
The conditions of series [7]: human.
For series [8] the following is noted: human. The source holds these as a separate data set.
For series [9] the following is noted: human. This is another data set of the same source.
For series [10] the following is noted: human, serum, 4383 h.
The conditions of series [11]: human. The source holds these as a separate data set.
The conditions of series [12]: human. This is another data set of the same source.
The conditions of series [13]: human. This is another data set of the same source.
The conditions of series [14]: human. The source holds these as a separate data set.
The conditions of series [15]: human. This is another data set of the same source.
The conditions of series [16]: human. This is another data set of the same source.
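Throughout, for Hepatotoxicity (association with vascular disease): count of indexed literature references reporting vascular liver injury in humans, e.g. peliosis hepatitis, hepatic veno-occlusive disease or Budd-Chiari syndrome.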
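Throughout, for Hepatotoxicity (benign tumour): value is a count of indexed literature references citing a benign tumour confirmed by histopathology.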
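Throughout, for Hepatotoxicity (choleostasis): human cholestatic liver injury, shown by histopathology or by peak ALT or AST elevation over alkaline phosphatase ratio below 2, value counts indexed literature reports.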
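Throughout, for Hepatotoxicity (chronic liver disease): chronic liver injury confirmed by histopathology or persistently raised serum aminotransferase activity beyond 6 months, value given as the count of indexed literature references.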
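Throughout, for Hepatotoxicity (cirrhosis): value is a count of indexed literature references reporting cirrhosis confirmed by histopathology.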
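Throughout, for Hepatotoxicity (cytolytic): human cytolytic liver injury, shown by histopathology or by a ratio above 5 of peak ALT or AST elevation to alkaline phosphatase elevation, value counts indexed references.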
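Throughout, for Hepatotoxicity (granulomatous hepatitis): value is a count of indexed literature references reporting granulomatous liver disease confirmed by histopathology.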
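Throughout, for Hepatotoxicity (malignant tumour): malignant tumour confirmed by histopathology, value gives the count of indexed literature references reporting it.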
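Throughout, for Hepatotoxicity (severe hepatitis): human clinical data: severe hepatitis, meaning potentially life-threatening liver failure or clinically observed cases, the value counts how many indexed literature references report it.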
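Throughout, for Hepatotoxicity (steatosis): steatosis confirmed by histopathology, value is the count of indexed references.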

As for `C/C=C(/CC)C(=O)NC(N)=O`, the “Hepatotoxicity (moderate)” value was 0% in series [1] and 0 in series [5]. Besides, the “Hepatotoxicity (acute)” value in series [2] came out at 0%; in series [6], 1. Besides, the “Hepatotoxicity (successful reintroduction)” value in [3] is reported as “yes”. Also, in series [4], the “Hepatotoxicity (time to onset)” value was 3 weeks. In addition, the “Hepatotoxicity (cytolytic)” value in series [7] came to 0. Further, the “Hepatotoxicity (choleostasis)” value in [8] worked out at 0. Further, in series [9], the “Hepatotoxicity (severe hepatitis)” value stood at 0. In series [10], the “Hepatotoxicity (chronic liver disease)” value turned out to be 0. The “Hepatotoxicity (cirrhosis)” value in [11] is 0. For the same compound, the “Hepatotoxicity (granulomatous hepatitis)” value in series [12] came to 0. Moreover, the “Hepatotoxicity (association with vascular disease)” value in series [13] came to 0. Also, the “Hepatotoxicity (steatosis)” value in series [14] came out at 0. In series [15], the “Hepatotoxicity (malignant tumour)” value was determined as 0. In series [16], the “Hepatotoxicity (benign tumour)” value was 0.
Turning to `Nc1nc(N)c2nc(-c3ccccc3)c(N)nc2n1`, the “Hepatotoxicity (moderate)” value in series [1] was 0%; in series [5], 1. Further, the results for the “Hepatotoxicity (acute)” value in [2] and in series [6] were 0% and 1, respectively. Moreover, the “Hepatotoxicity (successful reintroduction)” value in series [3] is given as “yes”. In addition, the “Hepatotoxicity (time to onset)” value in series [4] was 2 days - 3 weeks. Also, the “Hepatotoxicity (cytolytic)” value in [7] was 1. Besides, the “Hepatotoxicity (choleostasis)” value in series [8] is 0. Further, in series [9], the “Hepatotoxicity (severe hepatitis)” value was found to be 1. In series [10], the “Hepatotoxicity (chronic liver disease)” value is 0. For the same compound, the “Hepatotoxicity (cirrhosis)” value in [11] was 0. Besides, in [12], the “Hepatotoxicity (granulomatous hepatitis)” value is 0. Besides, in series [13], the “Hepatotoxicity (association with vascular disease)” value was found to be 0. Further, the “Hepatotoxicity (steatosis)” value in [14] was 0. The “Hepatotoxicity (malignant tumour)” value in [15] is 0. The “Hepatotoxicity (benign tumour)” value in series [16] came to 0.
Take `N[C@@H](Cc1ccc(N(CCCl)CCCl)cc1)C(=O)O`: the “Hepatotoxicity (moderate)” value in [1] is 8%; in series [5], 1. Moreover, the “Hepatotoxicity (acute)” value in series [2] was 0%; in [6], 2. Moreover, the “Hepatotoxicity (successful reintroduction)” value in [3] was “yes”. The “Hepatotoxicity (time to onset)” value in series [4] is on record as 6 days - 7 weeks. Moreover, the “Hepatotoxicity (cytolytic)” value in series [7] is recorded as 0. Moreover, the “Hepatotoxicity (choleostasis)” value in series [8] is 1. In series [9], the “Hepatotoxicity (severe hepatitis)” value was determined as 0. Further, in [10], the “Hepatotoxicity (chronic liver disease)” value was determined as 0. Moreover, the “Hepatotoxicity (cirrhosis)” value in series [11] is on record as 0. In series [12], the “Hepatotoxicity (granulomatous hepatitis)” value is given as 0. The “Hepatotoxicity (association with vascular disease)” value in [13] is given as 2. Moreover, the “Hepatotoxicity (steatosis)” value in series [14] worked out at 0. The “Hepatotoxicity (malignant tumour)” value in series [15] is 0. Besides, the “Hepatotoxicity (benign tumour)” value in series [16] is listed as 0.
`O=C(O)COC(=O)Cc1ccccc1Nc1c(Cl)cccc1Cl` [ACECLOFENAC]: the figures for the “Hepatotoxicity (moderate)” value in series [1] and in series [5] were 3.3% and 5, respectively. Further, the figures for the “Hepatotoxicity (acute)” value in series [2] and in [6] were 0% and 3, respectively. Besides, in [3], the “Hepatotoxicity (successful reintroduction)” value is recorded as “yes”. Further, the “Hepatotoxicity (time to onset)” value in series [4] came to 1 week - 3 weeks. Further, the “Hepatotoxicity (cytolytic)” value in [7] came out at 2. For the same compound, the “Hepatotoxicity (choleostasis)” value in series [8] was 0. In [9], the “Hepatotoxicity (severe hepatitis)” value was determined as 0. For the same compound, in series [10], the “Hepatotoxicity (chronic liver disease)” value is recorded as 0. Moreover, in series [11], the “Hepatotoxicity (cirrhosis)” value is listed as 0. Besides, the “Hepatotoxicity (granulomatous hepatitis)” value in [12] amounted to 0. In series [13], the “Hepatotoxicity (association with vascular disease)” value stood at 0. Further, the “Hepatotoxicity (steatosis)” value in [14] was determined as 0. Also, in [15], the “Hepatotoxicity (malignant tumour)” value is 0. The “Hepatotoxicity (benign tumour)” value in series [16] is on record as 0.
